Data on 50 compounds can be found in US20250099448A1, “HETEROCYCLIC COMPOUNDS” (Hoffmann-La Roche Inc., priority 2022, published 2025).

The structures appear in SMILES notation.

In the experiment the target is T1, MAGL protein (Homo sapiens, UniProt Q99685).
T1 sequence (Q99685 1-303): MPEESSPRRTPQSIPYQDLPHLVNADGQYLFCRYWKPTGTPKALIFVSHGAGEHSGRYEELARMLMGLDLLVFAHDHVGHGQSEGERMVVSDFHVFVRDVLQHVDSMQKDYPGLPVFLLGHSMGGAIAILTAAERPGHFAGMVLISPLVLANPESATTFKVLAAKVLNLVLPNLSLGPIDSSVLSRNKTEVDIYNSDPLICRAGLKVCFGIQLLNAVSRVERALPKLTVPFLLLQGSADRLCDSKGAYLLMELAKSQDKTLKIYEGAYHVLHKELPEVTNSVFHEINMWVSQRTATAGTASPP
As to the kind of experiment: 2-AG assay: MAGL inhibitory activity by hydrolysis of 2-arachidonoylglycerol to arachidonic acid, followed by mass spectrometry. The experiment is classed as biochemical. The settings on record: 8 μM 2-arachidonoylglycerol, 15 min preincubation, 30 min reaction at RT, RapidFire MS readout. In a few lines:
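Activity was measured by RapidFire SPE–triple-quad MS as the ratio of arachidonic acid to d8-arachidonic acid after 2-AG hydrolysis (8 μM substrate, 30 min, RT, acetonitrile quench). Compounds, tested from 12.5 μM down to […], were first preincubated 15 min with MAGL in TRIS/EDTA/Tween-20 buffer containing 2.5% DMSO.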

On to `O=C(N1CC2(CC(Cc3cc(C(F)(F)F)n[nH]3)C2)C1)N1CC2(CC(c3nc(C4(O)CC4)n[nH]3)C2)C1` [compound 589], for which the 50% inhibitory concentration (IC50) (in general, the concentration that inhibits the measured activity by half) was determined as 0.59 nM.

On to `O=C(N1CC2(CC(c3nc(C4CC4)n[nH]3)C2)C1)N1CC2(CN(Cc3ccnn3CC(F)F)C2)C1` [compound 597], for which the IC50 came to 135 nM.

On to `O=C(N1CC2(CC(Cc3cnn(CC(F)(F)F)c3)C2)C1)N1CC2(CC(c3nc(C4(O)CC4)n[nH]3)C2)C1` [compound 765], for which the IC50 stood at 4.49 nM.

In turn, `Cc1cc(C23CC(C4CN(C(=O)N5CC6(CC(c7nc(C8CC8)n[nH]7)C6)C5)C4)(C2)C3)[nH]n1` [compound 595] came in with an IC50 of 3.63 nM. This IC50 and that of the compound before are within 1.5-fold of each other.

As to `CS(=O)(=O)c1cc(Cl)ccc1-c1ccc(C2CN(C(=O)N3CC4(CC(c5nnc(C6CC6)[nH]5)C4)C3)C2)cc1` [compound 337], the IC50 turned out to be 0.07 nM.

`O=C(N1CC2(CC(c3nc(C4CC4)n[nH]3)C2)C1)N1CC2(CCN(Cc3cccc(S(=O)(=O)C(F)(F)F)c3)C2)C1` [compound 549]: half-maximal inhibition (IC50) was put at 0.66 nM.

Regarding `O=C(N1CC2(CC(Cc3ccc(S(=O)(=O)C(F)(F)F)cc3)C2)C1)N1CC2(CC(c3nc(C4CC(F)(F)C4)n[nH]3)C2)C1` [compound 526], the IC50 stood at 4.6 nM.

The compound `O=C(N1CC2(CC(c3nc(C4(O)CC4)n[nH]3)C2)C1)N1CC2(CC[C@@H](Cc3ccc(S(=O)(=O)C(F)(F)F)cc3)C2)C1` [compound 599] showed a concentration for half-maximal inhibition (IC50) of 0.84 nM.

In turn, `N#Cc1ccc(CC2CC3(C2)CN(C(=O)N2CC4(CC(c5nc(C6COC6)n[nH]5)C4)C2)C3)c(F)c1` [compound 797] showed a half-inhibitory concentration (IC50) of 9.31 nM.

The compound `O=C(c1cccc(F)c1)N1CCN(C(=O)N2CC3(CC(c4nnc(C5CC5)[nH]4)C3)C2)CC1` [Example 979, [4-[6-(5-cyclopropyl-4H-1,2,4-triazol-3-yl)-2-azaspiro[3.3]heptane-2-carbonyl]piperazino]-(3-fluorophenyl)methanone] registered an IC50 of 2940 nM. Compared with the last compound, the IC50 is about 320-fold higher.

`O=C(N1CC2(CCC(OCC3(C(F)(F)F)CC3)CC2)C1)N1CC2(CC(c3nnc(C4(O)CC4)[nH]3)C2)C1` [compound 66]: the concentration for half-maximal inhibition (IC50) is 1.91 nM.

`O=C(N1CC2(CC(Cc3ccc4nc(C(F)(F)F)nn4c3)C2)C1)N1CC2(CC(c3nc(C4CC4)n[nH]3)C2)C1` [compound 993] returned an IC50 of 0.8 nM. This IC50 lies about 2.4-fold lower than the previous one.

Regarding `O=C(N1CC2(CCN(S(=O)(=O)C34CC(C(F)(F)F)(C3)C4)CC2)C1)N1CC2(CC(c3nnc(C4CC4)[nH]3)C2)C1` [compound 237], the concentration for half-maximal inhibition (IC50) was 17.1 nM.

On to `O=C(N1CC2(CC(Cn3ccc(C(F)(F)F)n3)C2)C1)N1CC2(CC(c3nc(C4CC4)n[nH]3)C2)C1` [compound 844], for which 0.71 nM corresponded to half-maximal inhibition (IC50).

`O=C(N1CC2(CC(Cn3nccc3C(F)(F)F)C2)C1)N1CC2(CC(c3nc(C4(F)CC4)n[nH]3)C2)C1` [compound 457] displayed a half-inhibitory concentration (IC50) of 0.31 nM. This IC50 is about 2.3-fold lower than that of the compound before.

Take `O=C(N1CC2(CC(Cn3cc(C(F)(F)F)cn3)C2)C1)N1CC2(CC(c3nc(C4(O)CC4)n[nH]3)C2)C1` [compound 671]: half-maximal inhibition (IC50) was put at 5.55 nM. Compared with the last compound, the IC50 is about 18-fold higher.

With `O=C(N1CC2(CC(Cn3ccc(C(F)(F)F)n3)C2)C1)N1CC2(CC(c3nc(C4(O)CC4)n[nH]3)C2)C1` [compound 673], the half-inhibitory concentration (IC50) turned out to be 2 nM.

As for `O=C(N1CC2(CCC(Cc3ccc(F)cn3)CC2)C1)N1CC2(CC(c3nnc(C4(O)CC4)[nH]3)C2)C1` [compound 145], inhibition was half-maximal at 12.6 nM (IC50). This IC50 is about 6.3-fold higher than that of the compound before.

`O=C(O)c1ccccc1-c1ccc(C2CN(C(=O)N3CC4(CC(c5nnc(C6CC6)[nH]5)C4)C3)C2)cc1` [Example 390, 2-[4-[1-[6-(5-cyclopropyl-4H-1,2,4-triazol-3-yl)-2-azaspiro[3.3]heptane-2-carbonyl]azetidin-3-yl]phenyl]benzoic Acid] gave a concentration for half-maximal inhibition (IC50) of 1.06 nM.

As for `O=C(N1CCN(Cc2ccc(C(F)(F)F)nc2)CC1)N1CC2(CC(c3nnc(C4CC4)[nH]3)C2)C1` [Example 842], half-maximal inhibition (IC50) was put at 133 nM.

`CS(=O)(=O)c1ccc(CC2CC3(C2)CN(C(=O)N2CC4(CC(c5ncn[nH]5)C4)C2)C3)cc1C(F)(F)F` [compound 984] came in with an IC50 of 2770 nM.

`O=C(N1CC2(CC(Cc3ccc(C(F)(F)F)nc3)C2)C1)N1CC2(CC(c3nnc(C4(O)CC4)[nH]3)C2)C1` [compound 6] displayed a concentration for half-maximal inhibition (IC50) of 1.15 nM.

As for `O=C(N1CC(C23CC(Cn4cc(C(F)(F)F)ccc4=O)(C2)C3)C1)N1CC2(CC(c3nc(C4CC4)n[nH]3)C2)C1` [compound 946], the half-maximal inhibitory concentration (IC50) is 1.05 nM.

`CS(=O)(=O)c1cc(C(F)(F)F)ccc1CC1CC2(C1)CN(C(=O)N1CC3(CC(c4nc(C5COC5)n[nH]4)C3)C1)C2` [compound 827] showed a half-inhibitory concentration (IC50) of 21.2 nM.

In turn, `CS(=O)(=O)c1cc(C(F)(F)F)ccc1CC1CC2(C1)CN(C(=O)N1CC3(CC(c4ncn[nH]4)C3)C1)C2` [compound 633] returned a half-inhibitory concentration (IC50) of 1310 nM. Compared with the last compound, the IC50 is about 62-fold higher.

Consider `O=C(N1CC2(CC(c3nc(C4(O)CC4)n[nH]3)C2)C1)N1CC2(CC(C(F)(F)c3ccc(C(F)(F)F)nn3)C2)C1` [compound 448], for which the concentration for half-maximal inhibition (IC50) worked out at 8.2 nM.

`O=C(N1CCC(CNS(=O)(=O)c2ccc(Cl)cc2)CC1)N1CC2(CC(c3nnc(C4CC4)[nH]3)C2)C1` [compound 252] registered an IC50 of 68.3 nM.

`Cn1cc(-c2ccc(C3CN(C(=O)N4CC5(CC(c6nnc(C7CC7)[nH]6)C5)C4)C3)cc2)c(C(F)(F)F)n1` [compound 834] returned an IC50 of 0.06 nM.

In the case of `O=C(N1CC2(CC(Cc3n[nH]c(C(F)(F)F)n3)C2)C1)N1CC2(CC(c3nc(C4CC4)n[nH]3)C2)C1` [compound 494], the IC50 is 3.69 nM. Against the preceding compound, the IC50 is about 62-fold higher.

In turn, `CC1(NS(=O)(=O)N2CC3(CN(C(=O)N4CC5(CC(c6nnc(C7CC7)[nH]6)C5)C4)C3)C2)CC1` [compound 213] gave an IC50 of 45 nM. This IC50 lies about 12-fold higher than the previous one.

As for `COC(=O)c1ccc(CC2CC3(C2)CN(C(=O)N2CC4(CC(c5nc(C6CC6)n[nH]5)C4)C2)C3)cc1OC(F)(F)F` [compound 911], 0.03 nM corresponded to half-maximal inhibition (IC50).

The compound `O=C(N1CC(c2ccc(C3(C(F)(F)F)CC3)cc2)C1)N1CC2(CC(c3nc(C4CC(F)(F)C4)n[nH]3)C2)C1` [compound 563] yielded an IC50 of 12.7 nM.

The compound `CC(C)(C)Cc1nnc(C23CC(C4CN(C(=O)N5CC6(CC(c7nc(C8(F)CC8)n[nH]7)C6)C5)C4)(C2)C3)s1` [compound 492] came in with an IC50 of 3.84 nM.

Consider `O=C(N1CC2(CC(Cn3cc(S(=O)(=O)C(F)(F)F)cn3)C2)C1)N1CC2(CC(c3nc(C4CC4)n[nH]3)C2)C1` [compound 951], for which the IC50 turned out to be 0.28 nM.

On to `O=C(N1CC(C23CC(CNC4(C(F)(F)F)CC4)(C2)C3)C1)N1CC2(CC(c3nnc(C4CC4)[nH]3)C2)C1` [compound 341], for which the IC50 was 0.12 nM. Against the preceding compound, the IC50 is about 2.3-fold lower.

Compound `O=C(N1CC2(CCC(Cc3cnc(C(F)(F)F)cn3)C2)C1)N1CC2(CC(c3nnc(C4CC4)[nH]3)C2)C1` (single isomer, unassigned) [compound 150] displayed a concentration for half-maximal inhibition (IC50) of 0.82 nM.

In the case of `CS(=O)(=O)c1ccc(COC2CCN(C(=O)N3CC4(CC(c5nc(C6(O)CC6)n[nH]5)C4)C3)CC2)c(Cl)c1` [Example 918, [4-(2-chloro-4-mesyl-benzyl)oxypiperidino]-[6-[3-(1-hydroxycyclopropyl)-1H-1,2,4-triazol-5-yl]-2-azaspiro[3.3]heptan-2-yl]methanone], the IC50 stood at 964 nM.

With `O=C(N1C[C@H]2CN(Cc3ccccc3)C[C@H]2C1)N1CC2(CC(c3nnc(C4CC4)[nH]3)C2)C1` [compound 363], it took 244 nM to reach half-maximal inhibition (IC50).

On to `Cc1cc(C2CC2)nn1-c1ccc(C2CN(C(=O)N3CC4(CC(c5nc(C6(O)CC6)n[nH]5)C4)C3)C2)cc1` [compound 821], for which inhibition was half-maximal at 2 nM (IC50).

`O=C(N1CC2(CC(c3nnc(C4CC4)[nH]3)C2)C1)N1CC2(C1)CN(S(=O)(=O)c1cccc(OC(F)(F)F)c1)C2` [compound 87] came in with an IC50 of 8.21 nM. Compared with the last compound, the IC50 is about 4.1-fold higher.

`O=C(N1CC2(CC(c3nnc(C4CC4)[nH]3)C2)C1)N1CC2(C1)CN(S(=O)(=O)c1ccc(F)c(C(F)(F)F)c1)C2` [compound 102] had an IC50 of 15 nM.

Compound `O=C(N1CC(c2ccc(OCC3(C(F)(F)F)CC3)cc2)C1)N1CC2(CC(c3nnc(C4(O)CC4)[nH]3)C2)C1` [compound 375] had an IC50 of 1.89 nM.

In the case of `Cn1nc(CC2CC3(C2)CN(C(=O)N2CC4(CC(c5nc(C6(F)CC6)n[nH]5)C4)C2)C3)cc1C(F)(F)F` [compound 602], inhibition was half-maximal at 0.11 nM (IC50). Against the preceding compound, the IC50 is about 17-fold lower.

Take `O=C(N1CC2(CC(Cc3cnc(C(F)(F)F)nc3)C2)C1)N1CC2(CC(c3nnc(C4(O)CC4)[nH]3)C2)C1` [compound 21]: inhibition was half-maximal at 5.33 nM (IC50).

For the compound `N#Cc1cc(C(F)(F)F)ncc1CC1CC2(C1)CN(C(=O)N1CC3(CC(c4nnc(C5(O)CC5)[nH]4)C3)C1)C2` [compound 433], the IC50 came to 0.9 nM.

`O=C(N1CC(c2ccc([C@H]3C[C@@H](C(F)F)C3)cc2)C1)N1CC2(CC(c3nnc(C4CC4)[nH]3)C2)C1` (single isomer, unassigned) [Example 305, cis-[6-(5-Cyclopropyl-4H-1,2,4-triazol-3-yl)-2-azaspiro[3.3]heptan-2-yl]-[3-[4-[3-(difluoromethyl)cyclobutyl]phenyl]azetidin-1-yl]methanone] showed a concentration for half-maximal inhibition (IC50) of 0.07 nM.

In turn, `CCc1ccc(C(=O)N2CCN(C(=O)N3CC4(CC(c5nnc(C6CC6)[nH]5)C4)C3)CC2)cc1` [compound 869] registered a half-inhibitory concentration (IC50) of 115 nM.

Compound `O=C(N1CC2(CC(c3nc(C4CC4)n[nH]3)C2)C1)N1CC2(CN(Cc3conc3C(F)(F)F)C2)C1` [compound 663] registered a half-inhibitory concentration (IC50) of 13.1 nM. This IC50 lies about 8.8-fold lower than the previous one.

In the case of `COCn1ccnc1-c1ccccc1CN1CC2(C1)CN(C(=O)N1CC3(CC(c4nnc(C5CC5)[nH]4)C3)C1)C2` [compound 175], the 50% inhibitory concentration (IC50) was found to be 34.3 nM.

Take `N#Cc1cc(F)ccc1C12CC(C3CN(C(=O)N4CC5(CC(c6nc(C7(O)CC7)n[nH]6)C5)C4)C3)(C1)C2` [compound 509]: the IC50 worked out at 5.16 nM. This IC50 is about 6.6-fold lower than that of the compound before.
